Reference: patent US8623902B2, “Microbiocides” (Syngenta Crop Protection, LLC, priority 2008, dated 2014)

Tests used:
Puccinia recondita [1] = assay: Curative action against Puccinia recondita (brown rust) on wheat; assay type: in vivo; conditions: foliar, wheat leaf segments sprayed with 0.02% active ingredient one day after inoculation, assessed 8 days after inoculation, read-out: curative fungicidal activity (inhibition)
Method: Curative Action Against Puccinia recondita (Brown Rust) on Wheat Wheat leaf segments are placed on agar in multiwell plates (24-well format) and inoculated with a spore suspension of the fungus. One day after inoculation the leaf segments are sprayed with test solutions (0.02% active ingredient). After appropriate incubation the activity of a compound is assessed 8 days after inoculation as curative fungicidal activity.

[2] = test system: Leptosphaeria nodorum (Septoria nodorum); assay: Action against Leptosphaeria nodorum (Septoria nodorum; glume blotch) on wheat; assay type: in vivo; conditions: Parastagonospora nodorum, foliar, 96 h; wheat leaf segments sprayed with 0.02% active ingredient, assessed 4 days after inoculation; read-out: preventive fungicidal activity (inhibition)
Method: (§1) Action Against Leptosphaeria nodorum (Septoria nodorum; Glume Blotch) on Wheat Wheat leaf segments are placed on agar in multiwell plates (24-well format) and sprayed with test solutions (0.02% active ingredient). After drying, the leaf disks are inoculated with a spore suspension of the fungus. After appropriate incubation the activity of a compound is assessed 4 days after inoculation as preventive fungicidal activity.

Botrytis cinerea = assay: Action against Botrytis cinerea - fungal growth assay; assay type: cell-based; conditions: 0.002% active ingredient, PDB broth, 24° C., photometric after 3-4 days
Method: (§2) Action Against Botrytis cinerea—Fungal Growth Assay Conidia of the fungus from cryogenic storage are directly mixed into nutrient broth (PDB potato dextrose broth). After placing a (DMSO) solution of the test compounds (0.002% active ingredient) into a microtiter plate (96-well format) the nutrient broth containing the fungal spores is added. The test plates are incubated at 24° C. and the inhibition of growth is measured photometrically after 3-4 days. The activity of a compound is expressed as fungal growth inhibition (0=no growth inhibition, ratings of 80% to 99% mean good to very good inhibition, 100%=complete inhibition).

[3] = test system: Erysiphe graminis f.sp. tritici; assay: Action against Erysiphe graminis f.sp. tritici (wheat powdery mildew), wheat leaf segments; assay type: in vivo; conditions: Blumeria graminis, foliar, 168 h; wheat leaf segments sprayed with 0.02% active ingredient, assessed 7 days after inoculation; read-out: preventive fungicidal activity (inhibition)
Method: as §1, with “Against Erysiphe graminis f.sp. tritici (Wheat Powdery Mildew)” for “Against Leptosphaeria nodorum (Septoria nodorum; Glume Blotch) on Wheat”, “assessed 7” for “assessed 4”

Puccinia recondita [4] = assay: Protective action against Puccinia recondita (brown rust) on wheat; assay type: in vivo; conditions: foliar, 192 h, wheat leaf segments sprayed with 0.02% active ingredient, assessed 8 days after inoculation, read-out: preventive fungicidal activity (inhibition)
Method: Protective Action Against Puccinia recondita (Brown Rust) on Wheat Wheat leaf segments are placed on agar in multiwell plates (24-well format) and sprayed with test solutions (0.02% active ingredient). After drying, the leaf disks are inoculated with a spore suspension of the fungus. After appropriate incubation the activity of a compound is assessed 8 days after inoculation as preventive fungicidal activity.

Rhizoctonia solani = assay: Action against Rhizoctonia solani - fungal growth assay; assay type: cell-based; conditions: 0.002% active ingredient, PDB broth, 24° C., photometric after 3-4 days
Method: as §2, with “Rhizoctonia solani—Fungal” for “Botrytis cinerea—Fungal”, “Mycelial fragments of a newly grown liquid culture” for “Conidia”, “fungus” for “fungus from cryogenic storage”

[5] = test system: Monographella nivalis (anamorph: Fusarium nivale, Microdochium nivale; snow mould); assay: Action against Monographella nivalis - fungal growth assay; assay type: cell-based; conditions: 0.002% active ingredient, PDB broth, 24° C., photometric after 72 hrs
Method: as §2, with “Monographella nivalis (Anamorph: Fusarium nivale, Microdochium nivale; Snow Mould)—Fungal” for “Botrytis cinerea—Fungal”, “DMSO-solution” for “(DMSO) solution”, “72 hrs” for “3-4 days. The activity of a compound is expressed as fungal growth inhibition”

[6] = test system: Mycosphaerella arachidis (early leaf spot of groundnut; Cercospora arachidicola [anamorph]); assay: Action against Mycosphaerella arachidis - fungal growth assay; assay type: cell-based; conditions: 0.002% active ingredient, PDB broth, 24° C., photometric after 6-7 days
Method: as §2, with “Mycosphaerella arachidis (Early Leaf Spot of Groundnut; Cercospora arachidicola [anamorph])—Fungal” for “Botrytis cinerea—Fungal”, “6-7” for “3-4”

Pyrenophora teres = assay: Action against Pyrenophora teres (net blotch) on barley; assay type: in vivo; conditions: foliar, 96 h, barley leaf segments sprayed with 0.02% active ingredient, assessed 4 days after inoculation, read-out: preventive fungicidal activity (inhibition)
Method: as §1, with “Pyrenophora teres (Net” for “Leptosphaeria nodorum (Septoria nodorum; Glume”, “Barley Barley” for “Wheat Wheat”

Septoria tritici = assay: Action against Septoria tritici - fungal growth assay; assay type: cell-based; conditions: Zymoseptoria tritici; 0.002% active ingredient, PDB broth, 24° C., photometric after 72 hrs
Method: as §2, with “Septoria tritici—Fungal” for “Botrytis cinerea—Fungal”, “determined” for “measured”, “72 hrs.” for “3-4 days.”

Row | melting point | SMILES | inhibition at 0.02 % strength (Puccinia recondita [1]) | inhibition at 0.02 % strength [2] | inhibition at 0.002 % strength (Botrytis cinerea) | inhibition at 0.02 % strength [3] | inhibition at 0.02 % strength (Puccinia recondita [4]) | inhibition at 0.002 % strength (Rhizoctonia solani) | inhibition at 0.002 % strength [5] | inhibition at 0.002 % strength [6] | inhibition at 0.02 % strength (Pyrenophora teres) | inhibition at 0.002 % strength (Septoria tritici)
1 |  | Cn1cc(C(=O)N2CCC[C@H]2COc2c(Cl)cc(Cl)cc2Cl)c(C(F)F)n1 [Compound 1.006] | ≥ 80% | ≥ 50% | ≥ 80% | ≥ 80% | ≥ 80% | ≥ 50% | ≥ 50% | ≥ 80% | ≥ 80% | ≥ 80%
2 |  | CO/N=C/c1cc(Cl)c(OC[C@@H]2CCCN2C(=O)c2cn(C)nc2C(F)F)c(Cl)c1 [Compound 1.021, 3,5-dichloro-4-[(S)-1-(3-difluoromethyl-1-methyl-1H-pyrazole-4-carbonyl)-pyrrolidin-2-ylmethoxy]-benzaldehyde O-methyl-oxime] |  |  | ≥ 80% |  | ≥ 80% | ≥ 50% |  | ≥ 80% | ≥ 80% | ≥ 80%
3 | 137 to 140 °C | Cc1cccc(C)c1OC[C@@H]1CCCN1C(=O)c1cn(C)nc1C(F)F [Compound 1.068] | ≥ 80% | ≥ 50% | ≥ 80% | ≥ 80% | ≥ 80% | ≥ 50% |  | ≥ 80% | ≥ 80% | ≥ 80%
4 |  | Cn1cc(C(=O)N2CCCC2Cc2c(Cl)cccc2Cl)c(C(F)F)n1 (centres unmarked) [Compound 1.110, [2-(2,6-dichloro-benzyl)-pyrrolidin-1-yl]-(3-difluoromethyl-1-methyl-1H-pyrazol-4-yl)-methanone] |  |  |  | ≥ 50% |  |  |  | ≥ 80% | ≥ 80% | ≥ 80%
5 |  | Cn1cc(C(=O)N2CCC[C@H]2C(F)c2ccc(Cl)cc2)c(C(F)F)n1 (stereo partly drawn) [Compound 1.215, {(S)-2-[(4-chlorophenyl)-fluoro-methyl]-pyrrolidin-1-yl}-(3-difluoromethyl-1-methyl-1H-pyrazol-4-yl)-methanone] |  | ≥ 50% |  |  |  |  |  | ≥ 80% | ≥ 80% | ≥ 80%
6 |  | Cn1cc(C(=O)N2CCC[C@H]2C(=O)c2ccc(Cl)cc2)c(C(F)F)n1 [Compound 1.259, (4-chloro-phenyl)-[(S)-1-(3-difluoromethyl-1-methyl-1H-pyrazole-4-carbonyl)-pyrrolidin-2-yl]-methanone] |  |  |  |  |  |  |  |  | ≥ 50% | 
